Assay results reported in US20030186269A1, “Ssa-56 kda polypeptide and its fragments and polynucleotides encoding said polypeptides and therapeutic uses” (priority 2000, published 2003).

Experiments:
[1] = tested on: mRNA encoding the Ro/SSA-like protein; experiment: Semiquantitative RT-PCR of the expression of the mRNA encoding Ro/SSA-like in PBMCs; format: cell-based, human
Method: PBMCs from patients (P) infected with HIV or from control healthy donors (C) are isolated, depleted of CD8+ (Dynabeads, Dynal) and stimulated with PHA (5 μg/ml) for 3 days. The cells are then treated or not treated with murabutide (10 μ/ml) in the presence of interleukin 2 (IL2) (10U/ml) in RPMI medium supplemented with 10% fetal calf serum (FCS) for 6 hours or 24 hours in a proportion of a minimum of 5×10^6 cells per condition.
After treatment, the RNA in the cells is extracted (RNAplus, Quantum-bioprobe), then treated with DNase (Boerhinger) and reverse transcribed (RT) using an oligo(dT) in the presence of the Mu-MLV reverse transcriptase (Superscript II, Gibco).
The quality of the RTs is verified by PCR (25 cycles) with primers specific for GAPDH (5′GCCATCAATGACCCCTTCATTGAC 3′) (SEQ ID No. 18) and (5′TGACGAACATGGGGGCATCAGCAG 3′) (SEQ ID No. 19) using 20, 100 and 500 ng of total RNA. The inventors then carried out RT-PCRs (35 cycles) with primers specific for the mRNA encoding Ro/SSA-like, (5′ GAAAGAGAGGTCGCAGAGGCCTGT 3′) (SEQ ID No. 20) and (5′ TGATAAGGCTGAGGAAGGGAAATG 3′) (SEQ ID No. 21). The number of amplification cycles was determined beforehand (35 cycles). The amplified fragments are visualized on agarose gel (1%) in the presence of ethidium bromide, and then quantified using the Imager master program (Pharmacia).
For each dilution, the given value for the gene studied is related to that of the GAPDH (ratio=R). For each patient and each time (6 h or 24 h), the R of the cells treated with murabutide is related to that of the untreated cells. The results are then expressed as % increase or inhibition of expression of the gene relative to the untreated cells. It should be noted that, for each dilution tested, the R can vary slightly; the mean for the Rs was produced by taking care to always be in the linear phase of amplification.

chemokines = experiment: Profile of secreted cytokines and chemokines in PBMC cultures; format: cell-based, human; conditions: PBMC cultures of HIV patients
Description: (§1) Specifically, MB inhibits by 70 to 100% the level of HIV viral protein p24 in the culture supernatants. This effect correlates with the level of expression of viral messenger RNAs (nonspliced and single-spliced).

[2] = healthy volunteers and patients suffering from cancer; cited from earlier work
[3] = tested on: human immunodeficiency virus (HIV); conditions: macrophages and dendritic cells, PBMCs of infected patients; cited from earlier work
PBMCs = experiment: Toxicity (number of live cells) in the same PBMC cultures; format: cell-based, human; conditions: live cells unchanged at start, appear to increase at end of culturing
Description: as §1

[4] = cited from earlier work
[5] = HIV+ patients, phase I and phase IIa; cited from earlier work
HIV Tat (HIV) = experiment: ELISA on coated recombinant protein, control at 1/100
[6] = molecular target: recombinant SSA-52 protein (human) (UniProt P19474); experiment: as above
[7] = molecular target: recombinant Ro/SSA-like (SSA-56) protein, complete 485 aa open reading frame, His-tagged, expressed in E. coli (human) (UniProt Q6AZZ1); experiment: as above
[8] = molecular target: recombinant SSA-60 protein (UniProt P10155); experiment: as above
Helicase = experiment: as above
[9] = molecular target: recombinant SSB-48 protein (UniProt P05455); experiment: as above
HIV Nef (HIV) = experiment: as above

Sequence of UniProt P10155 (P10155 whole entry): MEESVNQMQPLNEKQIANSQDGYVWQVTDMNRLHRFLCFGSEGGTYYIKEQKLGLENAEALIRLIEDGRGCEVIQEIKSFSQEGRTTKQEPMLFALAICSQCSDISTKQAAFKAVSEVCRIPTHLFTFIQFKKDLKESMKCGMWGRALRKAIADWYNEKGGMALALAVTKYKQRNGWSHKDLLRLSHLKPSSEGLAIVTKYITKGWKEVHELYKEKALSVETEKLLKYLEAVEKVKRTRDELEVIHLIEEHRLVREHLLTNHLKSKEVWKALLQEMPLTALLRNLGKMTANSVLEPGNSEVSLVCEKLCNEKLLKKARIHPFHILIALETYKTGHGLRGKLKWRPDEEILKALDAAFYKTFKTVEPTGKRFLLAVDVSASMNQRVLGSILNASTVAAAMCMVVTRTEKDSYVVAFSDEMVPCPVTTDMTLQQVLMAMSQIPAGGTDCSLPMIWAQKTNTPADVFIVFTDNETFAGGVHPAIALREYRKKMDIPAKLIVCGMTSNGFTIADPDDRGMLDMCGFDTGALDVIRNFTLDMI
Sequence of UniProt P05455 (P05455 whole entry): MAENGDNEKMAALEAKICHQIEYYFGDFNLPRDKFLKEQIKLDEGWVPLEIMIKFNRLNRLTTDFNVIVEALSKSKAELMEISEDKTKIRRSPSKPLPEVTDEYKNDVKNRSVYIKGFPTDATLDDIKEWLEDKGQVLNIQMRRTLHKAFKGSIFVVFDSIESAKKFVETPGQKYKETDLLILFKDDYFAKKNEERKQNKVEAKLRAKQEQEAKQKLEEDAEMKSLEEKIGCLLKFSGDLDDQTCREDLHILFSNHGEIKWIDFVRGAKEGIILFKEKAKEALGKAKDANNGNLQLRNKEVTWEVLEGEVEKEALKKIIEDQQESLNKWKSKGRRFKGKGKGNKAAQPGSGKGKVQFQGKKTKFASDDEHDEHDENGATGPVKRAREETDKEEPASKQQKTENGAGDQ
Sequence of UniProt P19474 (P19474 whole entry): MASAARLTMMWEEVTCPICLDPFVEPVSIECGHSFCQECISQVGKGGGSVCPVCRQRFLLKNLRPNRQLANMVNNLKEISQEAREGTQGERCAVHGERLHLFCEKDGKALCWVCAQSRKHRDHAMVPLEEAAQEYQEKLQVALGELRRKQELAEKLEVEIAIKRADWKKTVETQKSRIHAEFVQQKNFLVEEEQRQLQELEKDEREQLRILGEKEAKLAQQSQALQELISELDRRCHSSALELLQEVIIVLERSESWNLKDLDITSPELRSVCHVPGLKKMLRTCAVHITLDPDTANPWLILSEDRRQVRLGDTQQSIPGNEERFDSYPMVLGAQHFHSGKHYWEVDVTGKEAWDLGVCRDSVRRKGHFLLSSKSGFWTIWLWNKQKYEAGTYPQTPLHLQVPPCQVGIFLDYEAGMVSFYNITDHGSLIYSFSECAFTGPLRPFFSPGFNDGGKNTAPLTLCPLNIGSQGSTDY

CCCCOC(=O)[C@@H](CCC(N)=O)NC(=O)[C@H](C)NC(=O)[C@@H](C)O[C@H]1[C@H](O)[C@@H](CO)OC(O)[C@@H]1NC(C)=O (some centres unmarked) [Murabutide]
inhibition of expression of the mRNA encoding Ro/SSA-like ([1]; PBMCs from HIV+ patients after stimulation with murabutide): significant inhibition | inhibition of expression of the mRNA encoding Ro/SSA-like relative to untreated cells ([1]; PBMCs from HIV+ patients, murabutide 10 μ/ml, 6 h or 24 h, 7 patients/10): more than 40% | inhibition of expression of the mRNA encoding Ro/SSA-like ([1]; PBMCs from healthy controls, observed only in 3 cases out of 8): inhibition is weaker | induction of chemokines known to be inhibitors of HIV replication (chemokines): induces reproduction of chemokines | severe toxicity in clinical studies [2]: has not shown any severe toxicity | HIV replication [3]: inhibits human immunodeficiency virus (HIV) replication | toxicity, number of live cells (PBMCs): lack of toxicity | inflammatory reactions ([4]; in vivo): does not induce inflammatory reactions | pyrogenicity ([4]; unlike MDP and many other analogs): not pyrogenic | clinical tolerance [5]: good clinical tolerance

Control SP20
Absorbance value at 1/100 (HIV Tat (HIV)): 0.068 absorbance | Absorbance value at 1/100 [6]: 0.059 absorbance | Absorbance value at 1/100 [7]: 0.058 absorbance | Absorbance value at 1/100 [8]: 0.068 absorbance | Absorbance value at 1/100 (Helicase): 0.055 absorbance | Absorbance value at 1/100 [9]: 0.051 absorbance | Absorbance value at 1/100 (HIV Nef (HIV)): 0.056 absorbance
